Experimental data: patent US8968784B2, “Method for preparing hydro/organo gelators from disaccharide sugars by biocatalysis and their use in enzyme-triggered drug delivery” (Research Foundation of the City University of New York, priority 2006, dated 2015)
Values after ≈ are worked out from the molar mass of the structure shown.

Key:
[1] = Gelation ability in water and organic solvents (inverted tube, visual); type: physicochemical; conditions: for gel formation: highly polar solvents like water, methanol, and non-polar solvents like nonane, benzene, toluene
Protocol: Typically, a gelator (0.01-2 mg) in a required solvent (0.1-1 mL) was heated until the solid was completely dissolved. The resulting solution was slowly allowed to cool to room temperature and gelation was visually observed. […] All gels obtained were thermally reversible. Above their gelation temperature, the gels dissolved in water but could be returned to their original gel state upon cooling.
Typically, the gelator (0.01-2 mg) and required solvent (0.1-1 mL) were placed into a 2 mL scintillation vial, which was then sealed with a screw cap. The vial was heated and shook until the solid was completely dissolved. The solution was set aside and allowed to cool to room temperature. Gelation was considered to have occurred when no gravitational flow in the inverted tube was observed.

[2] = Solubilization (encapsulation) of curcumin in hydrogel; type: physicochemical; conditions: 0.5 wt % hydrogel of derivative 3, aqueous with cosolvent or surfactant or cyclodextrin
Protocol: (§1) The release of curcumin into the solution in the presence of enzyme was monitored by measuring the curcumin UV-absorption spectrum. The absorption spectrum recorded in aqueous gel solution was compared with the curcumin spectra recorded in methanol. […] To test this hypothesis, water was added to the preformed gel and left for 12 hrs. The UV-absorption of the supernatant was recorded. […] XXVII. Cyclodextrin complexation: solubility, chemical and photochemical stability. Int. J. Pharm. 244, 127-135 (2002).

[3] = biological target: T1, hydrolase enzyme (Lipolase 100L, Type EX) (Thermomyces lanuginosus, UniProt O59952); assay: Enzyme-triggered gel degradation and curcumin release from hydrogel, monitored by UV absorption; conditions: for curcumin release: room temperature
T1 construct: purchased Lipolase 100L, Type EX
T1 sequence (O59952 23-291): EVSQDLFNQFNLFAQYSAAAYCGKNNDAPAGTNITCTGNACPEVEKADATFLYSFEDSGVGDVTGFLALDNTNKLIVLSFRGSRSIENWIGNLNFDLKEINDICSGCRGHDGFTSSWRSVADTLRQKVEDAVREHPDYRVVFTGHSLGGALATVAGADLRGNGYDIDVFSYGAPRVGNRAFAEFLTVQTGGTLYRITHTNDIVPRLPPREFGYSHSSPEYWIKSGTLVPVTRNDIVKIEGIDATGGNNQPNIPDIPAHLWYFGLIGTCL
Protocol: Solubilization of hydrophobic drugs and developing suitable drug delivery systems is a challenging task in drug discovery research.^18 A conceptual approach of single-step enzyme-triggered drug delivery at physiological conditions was performed where a hydrophobic drug molecule was encapsulated—solubilized without chemical modification—in a hydrogel and subsequent release of the drug by breaking the gel by using hydrolase enzyme (Lipolase 100L, Type EX). […] Drug release was monitored by absorbance spectra of the drug. Control of the drug release rate was achieved by manipulating the enzyme concentration and/or temperature. The by-products formed after the gel degradation were characterized and the cleavage site of the gelator by enzyme was determined. Gel degradation occurred due to the cleavage of the ester bond in the gelator by the hydrolase enzyme. ^18Miyata, T., Uragami, T. & Nakamae, K. Biomolecule-sensitive hydrogel. Adv. Drug Delivery Rev. 54, 79-98 (2002).
as §1
First, 0.5 mL of lipase—Lipolase 100L, Type EX, lipase units 100 KLU/g—was added to the preformed gel and kept at 37° C.—far lower than gel melting temperature. […] This was confirmed by spectroscopic experiments. Aliquots were collected after addition of an enzyme to the hydrogel after 10 min and 12 hrs and absorbance spectrum were recorded.
To find out the role of the enzyme on hydrogel degradation, similar experiments were carried out by adding only water without an enzyme. As expected, the curcumin-encapsulated gel was still intact after incubating for a few days at 37° C. There was no visual change in the gel volume and in the added solution. […] To this, 0.5 mL of lipolase was added and incubated at 37° C.
To obtain control on the rate of release, the role of enzyme concentration and temperature on gel degradation or controlled drug release was investigated. In a first set of experiments, the temperature was changed while keeping enzyme concentration constant. After addition of the enzyme to the preformed gel, the vial was kept at room temperature for two days, and as explained previously, curcumin release was monitored by absorption spectra.
In a second set of experiments, the enzyme concentration was changed while keeping the temperature constant. […] At room temperature, even after several days, there was no release. Then the vial was placed at 37° C. in incubation and took 300 min to start the drug release, which eventually took 4,320 min to release completely. In addition to this, a similar low enzyme concentrated vial was directly incubated at 45° C.
It is important to characterize the products/compounds formed after gel degradation. […] Upon gel degradation, a white fluffy solid was produced, which is not soluble in water, and thus settled down in the vial. The solid was isolated and characterized by ^1H-NMR, and it matched with the NMR of pure stearic acid. See FIG. 12, which is a comparison of the ^1H-NMR spectra of commercially available stearic acid and the white fluffy solid obtained after gel degradation, which was filtered, freeze-dried, and NMR recorded in Chloroform.

| Compound | gel formation [1] | solubility [2] | time to complete curcumin release ([3]; lipase 100 KLU/g, 37° C.) | time to start of curcumin release ([3]; lipase 100 KLU/g, 37° C.) | time to complete curcumin release ([3]; lipase 100 KLU/g, 45° C.) | time to start of curcumin release ([3]; lipase 100 KLU/g, 45° C.) | curcumin release ([3]; lipase 100 KLU/g, two days) | time to complete curcumin release ([3]; lipolase 10 KLU/g, 37° C.) | time to start of curcumin release ([3]; lipolase 10 KLU/g, 37° C.) | time to complete curcumin release ([3]; lipolase 10 KLU/g, 45° C.) | time to start of curcumin release ([3]; lipolase 10 KLU/g, 45° C.) | curcumin release ([3]; lipolase 10 KLU/g, several days) | curcumin in supernatant (UV absorption) ([3]; water added to preformed gel of derivative 3, left 12 hrs, no enzyme) | Minimum gelation concentration (MGC) ([1]; in benzene) | Minimum gelation concentration (MGC) ([1]; in water) | number of solvents gelled ([1]; ten solvents tested (water, polar and nonpolar organic solvents)) | gel degradation ([3]; hydrogel of derivative 3 without curcumin, 0.5 mL lipolase, 37° C., after 12 hrs) | site of gelator cleavage by enzyme (TLC, 1H-NMR of products) ([3]; products after gel degradation: amygdalin, stearic acid) |
| --- | --- | --- | --- | --- | --- | --- | --- | --- | --- | --- | --- | --- | --- | --- | --- | --- | --- | --- |
| Amygdalin Tetradecanoate [derivative 2] | formed gels | – | – | – | – | – | – | – | – | – | – | – | – | – | – | – | – | – |
| COc1cc(/C=C/C(=O)CC(=O)/C=C/c2ccc(O)c(OC)c2)ccc1O [curcumin] | – | 1000 µM (≈ 368 µg/mL) | ≤ 720 min | 120 min | 270 min | ≤ 30 min | no release | 4,320 min | 300 min | 2,880 min | 180 min | no release | Absence of any absorbance peak | – | – | – | – | – |
| Amygdalin Octadecanoate [derivative 3] | formed gels | – | – | – | – | – | – | – | – | – | – | – | – | 0.2 wt % | 0.05 wt % | all ten solvents | degraded completely | cleaving the ester bond |
